Measurements as given in paper PMC12627862, “Therapeutic targeting of endothelial calcium signaling accelerates the resolution of lung injury” (Signal Transduction and Targeted Therapy, 2025).
Starred links: 1 amine or outer side, 2 acyl side, 3 side chain; linkers in the order of their positions; H or OH if unused. Non-standard residues stand in square brackets, D forms with d. Residues, ends and D or L forms follow the SMILES beside them. ξ: configuration not given here. Oic = O=C(O)[C@@H]1C[C@@H]2CCCC[C@@H]2N1; GABOB(3R) = O=C(C[C@@H](O)CN[*:1])[*:2]; tBuAla = CC(C)(C)C[C@H](N)C(=O)O; ξVal(3-OH) = CC(C)(O)C(N)C(=O)O; 4Amb = NCc1ccc(C(=O)O)cc1

Legend:
[1] = system: Crl:CD (SD) rats; assay: Non-GLP dose-escalation (MTD) study in rats; format: in vivo, rat; design: key to Clinical Signs / Body Weights / Clinical Chemistry / Hematology / Coagulation: NE = no effect; DA = decreased activity; LB = labored breathing; P = piloerection; HP = hunched posture; settings: for ALT / APTT / AST / Albumin / Alkaline Phosphatase / Blood Urea Nitrogen / Calcium / Chloride / Cholesterol / Creatinine / Fibrinogen / Globulin / Glucose / Phosphorus / Potassium / Prothrombin Time / Sodium / Total Bilirubin / Total Protein: male rats, day 2, mean, N=3; for Body Weights / Clinical Chemistry / Clinical Signs / Coagulation / Hematology: rats, n=3
[2] = Non-GLP dose-escalation (MTD) study in rats; format: in vivo, rat; design: key to Clinical Signs / Body Weights / Clinical Chemistry / Hematology / Coagulation: NE = no effect; DA = decreased activity; LB = labored breathing; P = piloerection; HP = hunched posture; settings: rat, in vivo; male Crl:CD (SD) rats, single IV bolus; read-out: no observed adverse effect level (NOAEL)
[3] = in vitro; settings: human, plasma
Description: Stability assay of peptides in blood plasma of rodents, dogs, and humans. For the plasma stability assay, 5 μM of each peptide was incubated with species-specific plasma for 120 minutes and samples were taken at the required time points. Positive control used were molecules with known stability: enalapril, propantheline, and warfarin. The amount of test compound remaining at each time point was analyzed by LC-MS/MS. Appropriate control compounds for each species were also incubated.

[4] = system: CD1 mice challenged with LPS; assay: Endotoxemia model, sublethal LPS in oil-preloaded mice; format: in vivo, mouse; settings: LPS 4 mg/kg i.p.
From the text: Considering the diverse etiological factors contributing to the pathogenesis of ARDS[29], we first assessed the therapeutic benefits of VT-109 in treating pulmonary vascular leakage in a murine model of endotoxemia-induced hyperinflammatory ARDS[30]. We induce a systemic inflammatory response by administering lipopolysaccharide (LPS), an endotoxin of the outer membrane of gram-negative bacteria, which elicits strong immune responses in animals, causing endothelial barrier breakdown and associated pulmonary edema, lung injury, morbidity, and mortality.
Using this model, we implemented two different i.v. treatment protocols with VT-109 (Fig. 3a, b). In cohort 1, mice received three daily doses of 1 µmol/kg bw VT-109 starting 24 hours after LPS challenge at the onset of lung injury. […] Cohort 3 mice received vehicle daily starting at 24 hours of LPS challenge. […] This inhibitory effect of VT-109 on neutrophil recruitment, a hallmark of lung inflammation and poor clinical prognosis, was consistent with our previous work[3]. Overall, our findings indicate that treating pulmonary vascular leakage reduces lung inflammation, in part, by restricting neutrophil transmigration through the endothelial barrier. […]
Evans’ blue-labeled albumin extravasation. […] The optical density of the supernatant was measured spectrophotometrically at 620 nm (Evans Blue) and 740 nm (hemoglobin correction), with the dye content normalized to the wet weight of the lungs. Corrections for hemoglobin were made as follows: Corrected absorbance (Evans blue) = Absorbance (620) - (1.426 × Absorbance (740) + 0.03). […]
Myeloperoxidase (MPO) measurements. […] MPO levels in the samples were determined using the o-dianisidine-H₂O₂ technique following enzyme extraction with hexadecyl-trimethylammonium bromide (HTAB). The absorbance change was measured at […] over a 3-minute period, and the data were expressed as ΔOD460/min/g lung tissue.

CC(C)(C)C[C@@H]1NC(=O)C[C@@H](O)CNC(=O)[C@@H]2C[C@@H]3CCCC[C@@H]3N2C(=O)[C@H](CC(C)(C)C)NC(=O)c2ccc(cc2)CNC(=O)C(C(C)(C)O)NC(=O)[C@@H](Cc2ccccc2)NC1=O (stereo partly drawn) [compound 109, (1^2S,1^3aS,1^7aS,3S,10S,13R,16S,20R)-13-benzyl-20-hydroxy-10-(2-hydroxypropan-2-yl)-3,16-dineopentyl-1^2,1^3,1^3a,1^4,1^5,1^6,1^7,1^7a-octahydro-1^1H-4,8,11,14,17,22-hexaaza-1(1,2)-indola-6(1,4)-benzenacyclotricosaphane-2,5,9,12,15,18,23-heptaone.] (cyclo([4Amb][tBuAla][Oic][GABOB(3R)][tBuAla][dF][ξVal(3-OH)]))
MTD, equivalent in humans ([1]; human equivalent): ~ 2.43 mg/kg
LOAEL, HED ([1]; human equivalent dose): ~ 1.62 mg/kg
NOAEL, HED ([1]; human equivalent dose): ~ 0.81 mg/kg
lowest observed adverse effect level (LOAEL) ([1]; male Crl:CD (SD) rats, single IV bolus): 10 mg/kg
ALT ([1]; 5 mg/kg): 52.7 U/L
APTT ([1]; 5 mg/kg): 17.933 d¹ Seconds
AST ([1]; 5 mg/kg): 71.3 U/L
Albumin ([1]; 5 mg/kg): 3.0400 g/dL
Alkaline Phosphatase ([1]; 5 mg/kg): 381.7 U/L
Blood Urea Nitrogen ([1]; 5 mg/kg): 13.0 mg/dL
Calcium ([1]; 5 mg/kg): 11.320 mg/dL
Chloride ([1]; 5 mg/kg): 98.3 mmol/L
Cholesterol ([1]; 5 mg/kg): 86.0 5.6 3 mg/dL
Creatinine ([1]; 5 mg/kg): 0.3139 mg/dL
Fibrinogen ([1]; 5 mg/kg): 403.0 mg/dL
Globulin ([1]; 5 mg/kg): 2.239 g/dL
Glucose ([1]; 5 mg/kg): 161.3 mg/dL
Phosphorus ([1]; 5 mg/kg): 9.10 0.44 3 mg/dL
Potassium ([1]; 5 mg/kg): 5.93 d² mmol/L
Prothrombin Time ([1]; 5 mg/kg): 11.77 s
Sodium ([1]; 5 mg/kg): 141.3 mmol/L
Total Bilirubin ([1]; 5 mg/kg): 0.127 mg/dL
Total Protein ([1]; 5 mg/kg): 5.279 g/dL
ALT ([1]; 10 mg/kg): 52.0 U/L
APTT ([1]; 10 mg/kg): 17.800 d¹ Seconds
AST ([1]; 10 mg/kg): 68.3 U/L
Albumin ([1]; 10 mg/kg): 3.2720 0.1274 3 g/dL
Alkaline Phosphatase ([1]; 10 mg/kg): 323.0 U/L
Blood Urea Nitrogen ([1]; 10 mg/kg): 18.7 mg/dL
Calcium ([1]; 10 mg/kg): 11.767 mg/dL
Chloride ([1]; 10 mg/kg): 99.0 mmol/L
Cholesterol ([1]; 10 mg/kg): 88.7 2.3 3 mg/dL
Creatinine ([1]; 10 mg/kg): 0.318 mg/dL
Fibrinogen ([1]; 10 mg/kg): 453.3 mg/dL
Globulin ([1]; 10 mg/kg): 2.523 0.078 3 g/dL
Glucose ([1]; 10 mg/kg): 126.7 10.5 3 mg/dL
Phosphorus ([1]; 10 mg/kg): 9.67 0.45 3 mg/dL
Potassium ([1]; 10 mg/kg): 5.77 mmol/L
Prothrombin Time ([1]; 10 mg/kg): 12.27 d¹ Seconds
Sodium ([1]; 10 mg/kg): 144.0 mmol/L
Total Bilirubin ([1]; 10 mg/kg): 0.127 mg/dL
Total Protein ([1]; 10 mg/kg): 5.795 0.203 3 g/dL
ALT ([1]; 15 mg/kg): 52.7 U/L
APTT ([1]; 15 mg/kg): 16.867 s
AST ([1]; 15 mg/kg): 69.7 U/L
Albumin ([1]; 15 mg/kg): 3.1030 d² 0.0465 3 g/dL
Alkaline Phosphatase ([1]; 15 mg/kg): 286.0 U/L
Blood Urea Nitrogen ([1]; 15 mg/kg): 15.7 d² mg/dL
Calcium ([1]; 15 mg/kg): 11.590 mg/dL
Chloride ([1]; 15 mg/kg): 97.0 d² mmol/L
Cholesterol ([1]; 15 mg/kg): 91.0 6.1 3 mg/dL
Creatinine ([1]; 15 mg/kg): 0.352 mg/dL
Fibrinogen ([1]; 15 mg/kg): 438.3 mg/dL
Globulin ([1]; 15 mg/kg): 2.488 0.021 3 g/dL
Glucose ([1]; 15 mg/kg): 142.3 d² 1.2 3 mg/dL
Phosphorus ([1]; 15 mg/kg): 9.00 0.26 3 mg/dL
Potassium ([1]; 15 mg/kg): 5.47 mmol/L
Prothrombin Time ([1]; 15 mg/kg): 11.67 s
Sodium ([1]; 15 mg/kg): 142.0 mmol/L
Total Bilirubin ([1]; 15 mg/kg): 0.140 mg/dL
Total Protein ([1]; 15 mg/kg): 5.591 d² 0.067 3 g/dL
Body Weights ([1]; single IV bolus 5 mg/kg): NE
Clinical Chemistry ([1]; single IV bolus 5 mg/kg): NE
Clinical Signs ([1]; single IV bolus 5 mg/kg): DA
Coagulation ([1]; single IV bolus 5 mg/kg): NE
Hematology ([1]; single IV bolus 5 mg/kg): NE
Body Weights ([1]; single IV bolus 10 mg/kg): NE
Clinical Chemistry ([1]; single IV bolus 10 mg/kg): ↑BUN
Clinical Signs ([1]; single IV bolus 10 mg/kg): DA, LB
Coagulation ([1]; single IV bolus 10 mg/kg): NE
Hematology ([1]; single IV bolus 10 mg/kg): ↓%Reticulocytes
Body Weights ([1]; single IV bolus 15 mg/kg): NE
Clinical Chemistry ([1]; single IV bolus 15 mg/kg): ↑BUN ↑Creatinine
Clinical Signs ([1]; single IV bolus 15 mg/kg): DA, LB, P, HP
Coagulation ([1]; single IV bolus 15 mg/kg): NE
Hematology ([1]; single IV bolus 15 mg/kg): ↓Platelet Count ↓%Reticulocytes ↑Mean Platelet Volume
lung gross histopathology ([1]; single IV bolus 15 mg/kg): intra-alveolar hemorrhage and pigment deposition
NOAEL at 72 h [2]: 5 mg/kg
half-life at 5 μM [3]: > 8 h
remaining at 2 h, 5 μM [3]: 101%
pulmonary edema (EBA extravasation) ([4]; cohort 1: three daily i.v. doses of 1 µmol/kg bw starting 24 hours after LPS): promptly blocked the development of pulmonary edema
pulmonary edema (EBA extravasation) ([4]; cohort 2: two daily i.v. doses of 1 µmol/kg bw starting 72 hours after LPS): accelerated the resolution of pulmonary edema
myeloperoxidase (MPO) in the lung tissue ([4]; regardless of the treatment initiation time): consistently lowered
